Test results published in ChEMBL document CHEMBL3120129, “Enantiomeric atropisomers inhibit HCV polymerase and/or HIV matrix: characterizing hindered bond rotations and target selectivity” (J Med Chem, 2014).

Legend:
[1] = Inhibition of HIV1 NL-4.3 matrix (1 to 132) expressed in BL21(DE3) cells using [PI(4,5)P2]2 as substrate after 30 mins by fluorescence polarization assay; set-up: species or system Human immunodeficiency virus 1
[2] = Inhibition of HCV genotype 1b hexa-histidine-tagged NS5B polymerase expressed in baculovirus infected cell system; set-up: species or system Hepatitis C virus subtype 1b
[3] = Apparent half life of the compound assessed as atropisomer interconversion by HPLC analysis; assay type: physicochemical; settings: read-out: t1/2(app)
[4] = system: Hepatitis C virus; experiment: Antiviral activity against HCV genotype 1b by HCV replicon assay; assay type: functional, organism-based, Hepacivirus hominis
[5] = system: Human immunodeficiency virus 1; experiment: Antiviral activity against HIV1 NL-4.3; assay type: functional, organism-based; settings: Human immunodeficiency virus 1, NL-4.3

**Q.** With `CC(C)N(c1ccc(Oc2ccccc2C(F)(F)F)cc1C(=O)O)C(=O)[C@H]1CC[C@H](C)CC1` as the compound, how does the IC50 [1] read?
**A.** Its IC50 is > 175 µM.

**Q.** What about the IC50 [2] of the same compound?
**A.** The IC50 was 0.19 µM.

**Q.** For `CC(C)N(c1cc(F)c(Oc2ncc(CCn3nccn3)cc2C(F)(F)F)cc1C(=O)O)C(=O)[C@H]1CC[C@H](C)CC1`, which IC50 [2] is on record?
**A.** Its IC50 is 0.068 µM.

**Q.** Which IC50 [2] does the source give for `COC[C@H](C)N(c1cc(F)c(Oc2ncc(CCn3nccn3)cc2C(F)(F)F)cc1C(=O)O)C(=O)[C@H]1CC[C@H](C)CC1` here?
**A.** Its IC50 is 0.068 µM.

**Q.** With `COC[C@H](C)N(c1ccc(Oc2ncc(CCn3nccn3)cc2C(F)(F)F)c(F)c1)C(=O)[C@H]1CC[C@H](C)CC1` as the compound, how does the IC50 [2] read?
**A.** Its IC50 is 56 µM.

**Q.** Which half-life [3] does the source give for `Cc1cc(OCc2cnc(Oc3ccc(N(C(=O)[C@H]4CC[C@H](C)CC4)C(C)C)c(C(=O)O)c3)c(C(F)(F)F)c2)c2ccccc2n1` here?
**A.** Its half-life is 1.15 h.

**Q.** With `C[C@H]1CC[C@H](C(=O)Nc2ccc(Oc3ccccc3C(F)(F)F)cc2C(=O)O)CC1` as the compound, how does the IC50 [1] read?
**A.** The IC50 was > 95 µM.

**Q.** And the IC50 [2]?
**A.** The IC50 was 15 µM.

**Q.** Which results are given for `CN(c1ccc(Oc2ccccc2C(F)(F)F)cc1C(=O)O)C(=O)[C@H]1CC[C@H](C)CC1`?
**A.** IC50 [1]: > 100 µM; EC50 [4]: 1.1 µM; IC50 [2]: 0.2 µM

**Q.** With `COc1ccc(C(=O)Nc2ccc(Oc3ccc(N(C(=O)[C@H]4CC[C@H](C)CC4)C(C)C)c(C(=O)O)c3)cc2)cc1` as the compound, how does the EC50 [5] read?
**A.** Its EC50 is 2.8 µM.

**Q.** And the IC50 [1]?
**A.** Its IC50 is 3.4 µM.

**Q.** And the EC50 [4]?
**A.** Its EC50 is 0.95 µM.

**Q.** What about the IC50 [2] of the same compound?
**A.** The IC50 was 0.63 µM.
